Measured values: patent US11452718B2 (AVALYN PHARMA INC., priority 2012, dated 2022)

How the values were obtained:
[1] = Pharmacokinetics and tissue distribution (lung, plasma, heart, kidney) of co-solvent formulations, bolus intratracheal aerosol; type: in vivo, Sprague-Dawley rats; details: for Analyte in lung tissue, Mean: about 4 mg/kg pirfenidone IT bolus aerosol
Method: Selected formulations were prepared for pharmacokinetic analysis following aerosol delivery to rat lung. […] Formulations prepared for this study are outlined in Table 9. […] The sample was agitated until completely dissolved. […] Filtered samples were analyzed by HPLC.

cancer patients = details: cited from earlier work
p110-γ and p110-δ = details: versus the other isoforms; cited from earlier work
[2] = test system: EGFR mutation positive patients; details: cited from earlier work
[3] = test system: sol elastase activity of CF sputum; details: direct treatment of unprocessed CF sputum; cited from earlier work
PI3K = details: cited from earlier work
[4] = test system: relapsed/refractory multiple myeloma; details: cited from earlier work
breast cancer stem cells = details: mouse, in vivo; cited from earlier work
mTOR = mTOR (Homo sapiens, UniProt P42345); details: cited from earlier work
[5] = in vivo; cited from earlier work

For `O=C(O)c1ccc(=O)n(-c2ccccc2)c1`, the “Analyte in lung tissue, Mean” value ([1]; 0 MIN) was 0.00 μg/gram, the “Analyte in lung tissue, Mean” value ([1]; Group 1, 0.0333 hr) was 0.12 μg/gram and the “Analyte in lung tissue, Mean” value ([1]; Group 1, 0.0667 hr) was 0.13 μg/gram. For the same molecule, the “Analyte in lung tissue, Mean” value ([1]; Group 1, 0.1 hr) was 0.48 μg/gram, the “Analyte in lung tissue, Mean” value ([1]; Group 1, 0.167 hr) was 0.49 μg/gram and the “Analyte in lung tissue, Mean” value ([1]; Group 1, 0.333 hr) was 0.96 μg/gram. For the same molecule, the “Analyte in lung tissue, Mean” value ([1]; Group 1, 0.667 hr) was 0.96 μg/gram, the “Analyte in lung tissue, Mean” value ([1]; Group 1, 1 hr) was 0.73 μg/gram and the “Analyte in lung tissue, Mean” value ([1]; Group 1, 2 hr) was 0.21 μg/gram. For the same molecule, the “Analyte in lung tissue, Mean” value ([1]; Group 1, 2.5 hr) was 0.10 μg/gram, the “Analyte in lung tissue, Mean” value ([1]; Group 1, […]) was 0.48 μg/gram and the “Analyte in lung tissue, Mean” value ([1]; Group 3, 0.0333 hr) was 0.05 μg/gram. For the same molecule, the “Analyte in lung tissue, Mean” value ([1]; Group 3, 0.0667 hr) was 0.36 μg/gram, the “Analyte in lung tissue, Mean” value ([1]; Group 3, 0.1 hr) was 0.55 μg/gram and the “Analyte in lung tissue, Mean” value ([1]; Group 3, 0.167 hr) was 0.86 μg/gram. The “Analyte in lung tissue, Mean” value ([1]; Group 3, 0.333 hr) was 1.09 μg/gram, the “Analyte in lung tissue, Mean” value ([1]; Group 3, 0.667 hr) was 0.81 μg/gram and the “Analyte in lung tissue, Mean” value ([1]; Group 3, 1 hr) was 0.70 μg/gram. The “Analyte in lung tissue, Mean” value ([1]; Group 3, 2 hr) was 0.32 μg/gram, the “Analyte in lung tissue, Mean” value ([1]; Group 3, 2.5 hr) was 0.14 μg/gram and the “Analyte in lung tissue, Mean” value ([1]; Group 3, […]) was 0.52 μg/gram. For the same molecule, the “Analyte in lung tissue, Mean” value ([1]; Group 5, 0.0333 hr) was 0.17 μg/gram, the “Analyte in lung tissue, Mean” value ([1]; Group 5, 0.0667 hr) was 0.42 μg/gram and the “Analyte in lung tissue, Mean” value ([1]; Group 5, 0.1 hr) was 0.35 μg/gram. The “Analyte in lung tissue, Mean” value ([1]; Group 5, 0.167 hr) was 0.53 μg/gram, the “Analyte in lung tissue, Mean” value ([1]; Group 5, 0.333 hr) was 1.32 μg/gram and the “Analyte in lung tissue, Mean” value ([1]; Group 5, 0.667 hr) was 0.96 μg/gram. The “Analyte in lung tissue, Mean” value ([1]; Group 5, 1 hr) was 0.75 μg/gram, the “Analyte in lung tissue, Mean” value ([1]; Group 5, 2 hr) was 0.18 μg/gram and the “Analyte in lung tissue, Mean” value ([1]; Group 5, 2.5 hr) was 0.10 μg/gram. The “Analyte in lung tissue, Mean” value ([1]; Group 5, […]) was 0.45 μg/gram, the “Analyte in lung tissue, Mean” value ([1]; Group 6, 0.0333 hr) was 0.17 μg/gram and the “Analyte in lung tissue, Mean” value ([1]; Group 6, 0.0667 hr) was 0.43 μg/gram. For the same molecule, the “Analyte in lung tissue, Mean” value ([1]; Group 6, 0.1 hr) was 0.37 μg/gram, the “Analyte in lung tissue, Mean” value ([1]; Group 6, 0.167 hr) was 0.64 μg/gram and the “Analyte in lung tissue, Mean” value ([1]; Group 6, 0.333 hr) was 0.94 μg/gram. The “Analyte in lung tissue, Mean” value ([1]; Group 6, 0.667 hr) was 0.92 μg/gram, the “Analyte in lung tissue, Mean” value ([1]; Group 6, 1 hr) was 0.78 μg/gram and the “Analyte in lung tissue, Mean” value ([1]; Group 6, 2 hr) was 0.24 μg/gram. For the same molecule, the “Analyte in lung tissue, Mean” value ([1]; Group 6, 2.5 hr) was 0.14 μg/gram and the “Analyte in lung tissue, Mean” value ([1]; Group 6, […]) was 0.43 μg/gram.

In the case of `N#CC1(c2ccc(NC(=O)c3cccnc3NCc3ccncc3)cc2)CCCC1` [Apatinib], the dose limiting toxicities (cancer patients; 1000 mg/day) is given as 3 of 3, the complete response (cancer patients; 65 cancer patients, Phase I/II) is given as 1.54% and the partial response (cancer patients; 65 cancer patients, Phase I/II) is given as 12.31%. The progressive disease (cancer patients; 65 cancer patients, Phase I/II) was 20%, the stable disease (cancer patients; 65 cancer patients, Phase I/II) was 66.15% and the well tolerated dose (cancer patients; daily for 28 days) was “below 750 mg/day”. For the same molecule, the maximum tolerated dose (cancer patients; human, in vivo) was 850 mg/day.

For `Nc1nc(N)c2nc(-c3cccc(O)c3)c(-c3cccc(O)c3)nc2n1` [TG100-115], the “better potency against p110-γ and p110-δ” value (p110-γ and p110-δ) is listed as 5-10 fold.

For `C#Cc1cccc(Nc2ncnc3cc(OCCOC)c(OCCOC)cc23)c1` [erlotinib], the response rate ([2]; EGFR mutation positive patients) is given as “approximately 60%” and the “time to development of resistance from the start of treatment” value ([2]; human, in vivo) is given as 8-12 months.

For DNase, the “increase of elastase activity” value [3] is given as 190%.

For `CC(C)C[C@H](NC(=O)[C@H](Cc1ccccc1)NC(=O)c1cnccn1)B(O)O` [Bortezomib], the “patients with peripheral neuropathy” value ([4]; human, in vivo) is given as 30% and the “time to peak concentrations” value ([4]; intravenous administration) is given as “about 30 minutes”.

For `CC[C@@H](C(=O)[C@@H](C)[C@@H](O)[C@H](C)[C@@H]1O[C@@H]([C@@H](CC)C(=O)O)CC[C@@H]1C)[C@H]1O[C@]2(C=C[C@@H](O)[C@]3(CC[C@@](C)([C@H]4CC[C@](O)(CC)[C@H](C)O4)O3)O2)[C@H](C)C[C@@H]1C` [Salinomycin], the “effectiveness relative to paclitaxel” value (breast cancer stem cells) is given as “at least 100 times”.

In the case of `Cc1c(CN2CCN(S(C)(=O)=O)CC2)sc2c(N3CCOCC3)nc(-c3cnc(N)nc3)nc12` [GNE-477], the IC50 (mTOR) is listed as 21 nM.

For `O=C(O)c1ccc(=O)n(-c2ccccc2)c1` [5-carboxy-pirfenidone], the “appearance of metabolite after direct aerosol administration to the lung” value ([1]; primary pirfenidone liver metabolite) is given as “delayed appearance” and the “share of urinary excretion being the primary metabolite” value [5] is given as 95%.

B1: reduced rhTrx: stable reduced form of recombinant human thioredoxin (protein, UniProt P10599 2-105, looked up)
Thioredoxin: VKQIESKTAFQEALDAAGDKLVVVDFSATWCGPCKMIKPFFHSLSEKYSNVIFLEVDVDDCQDVASECEVKCMPTFQFFKKGQKVGEFSGANKEKLEATINELV
modifications: reduced form
In the case of B1, the “increase of elastase activity” value [3] is given as 60%.
